The text below walks through data of US8937068B2, “Pyridopyrazine derivatives and their use” (Zentaris GmbH, priority 2005, dated 2015).

By IC50 is commonly meant the concentration needed to halve the response being measured.

Assay [1] concerns the target PI3Kalpha (Homo sapiens (Human), UniProt P42336). Nature of the assay: Cell-free kinase assay (ALPHA technology), PI3Kalpha. The following applies: 100 μM ATP. Type of assay: biochemical. As to the method:
(§1) The inhibitory effect of the compounds according to the invention was tested on various serine/threonine, tyrosine and lipid kinases in enzymatic assays. Recombinant human kinases such as, for example, Erk2, PI3Kalpha, -beta, -gamma, -delta, p38alpha, p38gamma, Jnk1, Jnk2 and others were used in this case, partly as full-length kinases, partly as shortened fragments, but at least consisting of the functional kinase domains. The commercial kinase proteins (Proqinase, Upstate) were used as recombinant fusion proteins with GST (glutathion-S-transferase) or His-Tag. Depending on the type of substrate, the various kinase reactions were quantified by means of suitable ALPHA™ beads (Perkin-Elmer).
(§2) The substance testing is described in detail hereinafter for the Erk assay.
(§3) a) MAPK-ALPHAs (e.g. Erk2): the test substance, 0.625 ng Erk2 (#14-173, Upstate), 10 μM ATP and 15 nM biotinylated MBP (myelin basic protein) substrate were incubated on a 384-well Optiplate (Perkin-Elmer) in a volume of 15 μl for 1 h in 25 mM Tris, 10 mM MgCl2, 0.1% Tween-20, 100 μM NaVO4, 2 mM DTT at pH 7.5. The kinase reaction was then stopped by adding 10 μl of the ALPHA bead mixes (10 μg/ml, #6760617/Perkin-Elmer) pre-incubated with anti-phospho MBP antibody (320 pM, #05-429/Upstate) in 25 mM Tris, 200 mM NaCl, 110 nM EDTA and 0.3% BSA and left to stand overnight. b) PI3K-ALPHAs (e.g. PI3Kalpha): the test substance, 1 ng PI3Kalpha (#14-602, Upstate), 100 μM ATP and 20 μM PIP2 substrate (#P4508, Echelon) were incubated on a 384-well Optiplate (Perkin-Elmer) for 1 h in 50 mM Hepes, 50 mM NaCl, 5 mM MgCl2, 0.05% Chaps, 5 mM DTT at pH 7.4. The kinase reaction was then stopped by adding ALPHA bead mixes (10 μg/ml, #6760603/Perkin-Elmer) pre-incubated with 1 nM GST:Grp1 fusion protein (Upstate) and 15 nM biotinylated PIP3 (#C-39B6/Echelon) in 50 mM Hepes, 50 mM NaCl, 50 mM EDTA and 0.1% BSA and left to stand overnight.
(§4) The fluorescence was detected the following morning in a Fusion™^aα-system (Perkin-Elmer).
(§5) The %-inhibition values per substance concentration were calculated by means of the following formula from the raw data determined in the Fusion™ ? :
(§6) Eight determinations were made for each control and two for the substance samples. The 0% control either contains no ATP or no substrate, the 100% control (fully active kinase) contains no test substance. The IC50 values were determined using GraphPadPrism.

The target in assay [2] is Erk2 (Homo sapiens, UniProt P28482). The assay can be described thus: Cell-free kinase assay (ALPHA technology), Erk2. The format is biochemical. The note with it: 10 μM ATP. As to the method: The inhibitory effect of the compounds according to the invention was tested on various serine/threonine, tyrosine and lipid kinases in enzymatic assays. […] The commercial kinase proteins (Proqinase, Upstate) were used as recombinant fusion proteins with GST (glutathion-S-transferase) or His-Tag. Depending on the type of substrate, the various kinase reactions were quantified by means of suitable ALPHA™ beads (Perkin-Elmer). The substance testing is described in detail hereinafter for the Erk assay. […] a) MAPK-ALPHAs (e.g. […] The kinase reaction was then stopped by adding ALPHA bead mixes (10 μg/ml, #6760603/Perkin-Elmer) pre-incubated with 1 nM GST:Grp1 fusion protein (Upstate) and 15 nM biotinylated PIP3 (#C-39B6/Echelon) in 50 mM Hepes, 50 mM NaCl, 50 mM EDTA and 0.1% BSA and left to stand overnight. The fluorescence was detected the following morning in a Fusion™^aα-system (Perkin-Elmer). […] Eight determinations were made for each control and two for the substance samples. […] The IC50 values were determined using GraphPadPrism.

The target of assay [3] is p38alpha (Homo sapiens (Human), UniProt Q16539). The assay can be described thus: Cell-free kinase assay (ALPHA technology), p38alpha. The following applies: 10 μM ATP. The format is biochemical. As to the method:
as §1, §2, §3, §4, §5, §6

For assay [4], the system named is Jnk1 + Jnk2. The assay can be described thus: Cell-free kinase assay (ALPHA technology), Jnk1 + Jnk2. Type of assay: biochemical, human. The following applies: 10 μM ATP. As to the method: as §1, §2, §3, §4, §5, §6

Sequence of p38alpha (Q16539 whole entry): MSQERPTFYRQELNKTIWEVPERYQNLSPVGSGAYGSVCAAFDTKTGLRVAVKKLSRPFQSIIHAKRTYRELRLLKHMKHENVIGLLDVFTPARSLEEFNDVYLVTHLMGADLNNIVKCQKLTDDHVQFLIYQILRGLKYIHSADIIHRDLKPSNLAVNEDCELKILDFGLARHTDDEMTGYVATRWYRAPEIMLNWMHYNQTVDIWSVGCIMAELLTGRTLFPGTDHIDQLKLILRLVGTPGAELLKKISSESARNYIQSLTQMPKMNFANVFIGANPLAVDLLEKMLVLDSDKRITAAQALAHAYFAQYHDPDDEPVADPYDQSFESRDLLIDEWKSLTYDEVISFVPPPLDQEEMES
Sequence of PI3Kalpha (P42336 whole entry, the tested form may be a part): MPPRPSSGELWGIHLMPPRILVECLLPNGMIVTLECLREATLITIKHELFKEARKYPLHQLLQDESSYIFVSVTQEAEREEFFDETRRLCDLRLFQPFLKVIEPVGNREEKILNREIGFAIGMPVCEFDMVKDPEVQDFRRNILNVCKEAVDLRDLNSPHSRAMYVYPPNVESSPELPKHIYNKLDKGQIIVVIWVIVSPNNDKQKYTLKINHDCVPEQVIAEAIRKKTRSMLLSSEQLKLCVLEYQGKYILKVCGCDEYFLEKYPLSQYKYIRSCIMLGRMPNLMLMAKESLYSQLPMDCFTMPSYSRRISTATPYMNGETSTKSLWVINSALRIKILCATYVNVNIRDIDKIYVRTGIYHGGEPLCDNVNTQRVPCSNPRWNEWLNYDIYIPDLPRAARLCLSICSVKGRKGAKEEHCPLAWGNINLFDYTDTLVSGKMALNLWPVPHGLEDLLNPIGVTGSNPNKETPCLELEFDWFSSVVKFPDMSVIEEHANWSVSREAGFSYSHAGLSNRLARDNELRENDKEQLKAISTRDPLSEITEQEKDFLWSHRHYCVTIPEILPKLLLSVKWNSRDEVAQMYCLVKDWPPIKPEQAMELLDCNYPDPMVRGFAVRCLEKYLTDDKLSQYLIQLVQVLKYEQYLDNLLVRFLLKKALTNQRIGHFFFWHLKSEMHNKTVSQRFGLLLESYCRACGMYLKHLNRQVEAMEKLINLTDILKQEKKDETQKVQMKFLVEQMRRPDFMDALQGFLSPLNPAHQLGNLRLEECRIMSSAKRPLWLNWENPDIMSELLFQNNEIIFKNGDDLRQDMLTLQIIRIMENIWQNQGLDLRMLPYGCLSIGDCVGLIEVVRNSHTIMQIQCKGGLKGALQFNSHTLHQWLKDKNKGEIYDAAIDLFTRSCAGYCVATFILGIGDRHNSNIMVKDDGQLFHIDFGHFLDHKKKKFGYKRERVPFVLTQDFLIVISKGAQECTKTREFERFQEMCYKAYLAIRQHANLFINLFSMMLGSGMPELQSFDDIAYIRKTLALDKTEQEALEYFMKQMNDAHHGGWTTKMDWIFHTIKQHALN
Sequence of PI3Kalpha (P27986 whole entry partner, the tested form may be a part): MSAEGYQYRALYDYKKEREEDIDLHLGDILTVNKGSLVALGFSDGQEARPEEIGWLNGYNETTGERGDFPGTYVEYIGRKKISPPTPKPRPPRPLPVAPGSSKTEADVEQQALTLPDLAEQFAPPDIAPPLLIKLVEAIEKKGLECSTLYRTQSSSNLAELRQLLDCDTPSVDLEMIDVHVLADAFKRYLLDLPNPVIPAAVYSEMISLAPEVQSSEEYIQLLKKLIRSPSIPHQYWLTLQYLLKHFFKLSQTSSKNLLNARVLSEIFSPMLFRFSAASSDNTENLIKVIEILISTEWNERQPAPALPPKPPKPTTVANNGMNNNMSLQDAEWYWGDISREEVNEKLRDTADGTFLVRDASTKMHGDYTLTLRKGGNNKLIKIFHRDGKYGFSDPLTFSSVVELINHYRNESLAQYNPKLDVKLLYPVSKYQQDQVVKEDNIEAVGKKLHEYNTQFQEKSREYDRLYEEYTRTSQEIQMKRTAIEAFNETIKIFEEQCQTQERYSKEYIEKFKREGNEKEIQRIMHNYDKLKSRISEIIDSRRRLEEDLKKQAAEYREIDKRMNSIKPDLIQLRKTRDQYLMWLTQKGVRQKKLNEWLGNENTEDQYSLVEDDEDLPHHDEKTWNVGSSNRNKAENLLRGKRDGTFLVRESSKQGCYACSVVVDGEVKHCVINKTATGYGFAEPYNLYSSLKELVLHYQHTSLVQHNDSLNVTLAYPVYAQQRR
Sequence of Erk2 (P28482 2-360 limits assumed): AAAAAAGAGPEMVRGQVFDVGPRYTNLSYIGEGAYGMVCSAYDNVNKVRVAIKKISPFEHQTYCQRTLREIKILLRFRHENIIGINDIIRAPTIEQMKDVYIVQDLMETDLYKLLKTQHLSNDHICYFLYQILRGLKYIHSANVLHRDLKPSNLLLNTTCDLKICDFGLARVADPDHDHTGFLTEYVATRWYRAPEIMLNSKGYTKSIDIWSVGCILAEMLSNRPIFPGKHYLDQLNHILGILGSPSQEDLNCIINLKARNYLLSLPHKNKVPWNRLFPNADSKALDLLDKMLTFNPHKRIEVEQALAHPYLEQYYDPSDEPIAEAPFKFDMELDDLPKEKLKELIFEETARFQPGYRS

Regarding “1-[3-(3,5-Dichloro-4-hydroxy-phenyl)-pyrido[2,3-b]pyrazin-6-yl]-3-ethyl-urea [Compound 186]”, the IC50 is 3.8 µM in assay [1], 0.223 µM in assay [2], greater than 100 µM in assay [3] and 2.5 µM in assay [4].

As for `CCNC(=O)Nc1ccc2ncc(-c3ccc(O)cc3)nc2n1` [Compound 43, 1-Ethyl-3-[3-(4-hydroxy-phenyl)-pyrido[2,3-b]pyrazin-6-yl]-urea], the IC50 is 6.2 µM in assay [1], 0.006 µM in assay [2], greater than 100 µM in assay [3] and 5.5 µM in assay [4].

With `CNC(=S)Nc1ccc2ncc(-c3ccc(N)cc3)nc2n1` [Compound 44, 1-[3-(4-Amino-phenyl)-pyrido[2,3-b]pyrazin-6-yl]-3-methyl-thiourea], the IC50 in assay [1] is 3.8 µM; in assay [2], 2.5 µM; in assay [3], greater than 100 µM; in assay [4], 1.5 µM.

With `CCN(C(C)=O)C(=O)Nc1ccc2ncc(-c3ccccc3)nc2n1` [Compound 46, 1-Acetyl-1-ethyl-3-(3-phenyl-pyrido[2,3-b]pyrazin-6-yl)-urea], the IC50 in assay [1] is greater than 100 µM; in assay [2] it was 9.5 µM; in assay [3], 0.495 µM; in assay [4], greater than 100 µM.

`CCNC(=O)Nc1ccc2ncc(-c3ccc(N)cc3)nc2n1` [Compound 82, 1-[3-(4-Amino-phenyl)-pyrido[2,3-b]pyrazin-6-yl]-3-ethyl-urea]: the IC50 in assay [1] is 6.4 µM; in assay [2], 0.944 µM; in assay [3], greater than 31.6 µM; in assay [4], 1.1 µM.

In the case of `O=C(NCCCO)Nc1ccc2ncc(-c3ccccc3)nc2n1` [Compound 147, 1-(3-Hydroxy-propyl)-3-(3-phenyl-pyrido[2,3-b]pyrazin-6-yl)-urea], the IC50 in assay [1] was 4.1 µM; in assay [2] it was 0.711 µM; in assay [3], greater than 100 µM; in assay [4] it was 14.2 µM.

Regarding `CCNC(=O)Nc1ccc2ncc(-c3ccc(OCCCN4CCOCC4)cc3)nc2n1` [Compound 148, 1-Ethyl-3-{3-[4-(3-morpholin-4-yl-propoxy)-phenyl]-pyrido[2,3-b]pyrazin-6-yl}-urea], the IC50 in assay [1] was 1.4 µM; in assay [2] it was 1.8 µM; in assay [3] it was greater than 100 µM; in assay [4], 13.7 µM.

Take `CCNC(=S)Nc1ccc2ncc(-c3ccc(O)cc3)nc2n1` [Compound 149, 1-Ethyl-3-[3-(4-hydroxy-phenyl)-pyrido[2,3-b]pyrazin-6-yl]-thiourea]: the IC50 was 3.5 µM in assay [1], 0.954 µM in assay [2], greater than 100 µM in assay [3] and greater than 31.6 µM in assay [4].

Take `CCNC(=O)Nc1ccc2ncc(-c3cccc(O)c3)nc2n1` [Compound 151, 1-Ethyl-3-[3-(3-hydroxy-phenyl)-pyrido[2,3-b]pyrazin-6-yl]-urea]: the IC50 was 1.5 µM in assay [1], 0.104 µM in assay [2], greater than 100 µM in assay [3] and 2.9 µM in assay [4].

For `CCNC(=O)Nc1ccc2ncc(-c3cccc(C(=O)O)c3)nc2n1` [Compound 152, 3-[6-(3-Ethyl-ureido)-pyrido[2,3-b]pyrazin-3-yl]-benzoic acid], the IC50 in assay [1] is 5.3 µM; in assay [2], 1.9 µM; in assay [3], greater than 100 µM; in assay [4], 12.1 µM.

Take `CCNC(=O)Nc1ccc2ncc(-c3ccc(N)c(OC)c3)nc2n1` [Compound 154, 1-[3-(4-Amino-3-methoxy-phenyl)-pyrido[2,3-b]pyrazin-6-yl]-3-ethyl-urea]: the IC50 in assay [1] was 0.984 µM; in assay [2] it was 0.592 µM; in assay [3], greater than 31.6 µM; in assay [4], 2.8 µM.

With `CCNC(=O)Nc1ccc2ncc(-c3cccc(C(N)=O)c3)nc2n1` [Compound 155, 3-[6-(3-Ethyl-ureido)-pyrido[2,3-b]-pyrazin-3-yl]-benzamide], the IC50 is 5 µM in assay [1], greater than 100 µM in assay [2], greater than 100 µM in assay [3] and 7.8 µM in assay [4].

Take `CCNC(=O)Nc1ccc2ncc(Nc3ccc(OC)cc3)nc2n1` [Compound 158, 1-Ethyl-3-[3-(4-methoxy-phenylamino)-pyrido[2,3-b]pyrazin-6-yl]-urea]: the half-maximal inhibitory concentration (IC50) in assay [1] was 0.186 µM; in assay [2], greater than 100 µM; in assay [3], greater than 100 µM; in assay [4], greater than 31.6 µM.

`CCNC(=O)Nc1ccc2ncc(Nc3ccc(Cl)cc3)nc2n1` [Compound 159, 1-[3-(4-Chloroo-phenylamino)-pyrido-[2,3-b]pyrazin-6-yl]-3-ethyl-urea]: the IC50 in assay [1] is 0.147 µM; in assay [2] it was greater than 100 µM; in assay [3], greater than 100 µM; in assay [4], 12.6 µM.

Turning to `CCNC(=O)Nc1ccc2ncc(Nc3ccccc3C)nc2n1` [Compound 160, 1-Ethyl-3-(3-o-tolylamino-pyrido[2,3-b]-pyrazin-6-yl)-urea], the IC50 in assay [1] was 2.9 µM; in assay [2] it was 5.8 µM; in assay [3], greater than 31.6 µM; in assay [4] it was greater than 31.6 µM.

Turning to `CCNC(=O)Nc1ccc2ncc(Nc3cccnc3)nc2n1` [Compound 161, 1-Ethyl-3-[3-(pyridin-3-ylamino)-pyrido-[2,3-b]pyrazin-6-yl]-urea], the IC50 was 1.1 µM in assay [1], greater than 100 µM in assay [2], greater than 100 µM in assay [3] and greater than 100 µM in assay [4].

As to `CCNC(=O)Nc1ccc2ncc(Nc3ccc(CC)cc3)nc2n1` [Compound 162, 1-Ethyl-3-[3-(4-ethyl-phenylamino)-pyrido[2,3-b]pyrazin-6-yl]-urea], the IC50 in assay [1] was 0.19 µM; in assay [2], greater than 100 µM; in assay [3], greater than 100 µM; in assay [4], greater than 31.6 µM.

On to `CCNC(=O)Nc1ccc2ncc(Nc3ccc(C)c(OC)c3)nc2n1` [Compound 163, 1-Ethyl-3-[3-(3-methoxy-4-methyl-phenylamino)-pyrido[2,3-b]pyrazin-6-yl]-urea], for which the IC50 in assay [1] is 0.096 µM; in assay [2], 26.9 µM; in assay [3], greater than 100 µM; in assay [4] it was greater than 31.6 µM.

On to `CCNC(=O)Nc1ccc2ncc(Nc3ccc(C)cn3)nc2n1` [Compound 165, 1-Ethyl-3-[3-(5-methyl-pyridin-2-yl-amino)-pyrido[2,3-b]pyrazin-6-yl]-urea], for which the IC50 in assay [1] was 1.2 µM; in assay [2], 19.4 µM; in assay [3] it was greater than 100 µM; in assay [4], 27.1 µM.

As for `CCNC(=O)Nc1ccc2ncc(Nc3ccn(C)n3)nc2n1` [Compound 166, 1-Ethyl-3-[3-(1-methyl-1H-pyrazol-3-ylamino)-pyrido[2,3-b]pyrazin-6-yl]-urea], the half-inhibitory concentration (IC50) in assay [1] was 1.3 µM; in assay [2] it was 13.7 µM; in assay [3], greater than 100 µM; in assay [4] it was 21.9 µM.

For `CCNC(=O)Nc1ccc2ncc(Nc3ccc(F)cc3)nc2n1` [Compound 167, 1-Ethyl-3-[3-(4-fluoro-phenylamino)-pyrido[2,3-b]pyrazin-6-yl]-urea], the IC50 in assay [1] is 1.1 µM; in assay [2], greater than 100 µM; in assay [3], greater than 100 µM; in assay [4], 27.3 µM.

`COc1cc(-c2cnc3ccc(NC(=O)NCCCCO)nc3n2)ccc1O` [Compound 168, 1-(4-Hydroxy-butyl)-3-[3-(4-hydroxy-3-methoxy-phenyl)-pyrido[2,3-b]pyrazin-6-yl]-urea]: the IC50 is 0.612 µM in assay [1], 0.15 µM in assay [2], greater than 100 µM in assay [3] and 2.5 µM in assay [4].
